Source: patent US9056891B2, “Synthetic peptide inhibitors of Wnt pathway” (The United States of America, as represented by the …, priority 2010, dated 2015)
*1 amine or outer side, *2 acyl side, *3 side chain or, on linkers, in order; H or OH if unused. Where a SMILES comes first, the peptide text is derived from it. Bridges are numbered along the chain shown (N, C = ends). Where no end group is shown, it is not given here. [ ]: non-standard residue; d: D form. The star is where a group is joined. X1 = CCCCCCCCCCCCC(C)(N[*:1])C(=O)[*:2]; Palmitoyl = CCCCCCCCCCCCCCCC(=O)*; Aib = CC(C)(N)C(=O)O

Tests used:
4T1 cells = assay: Toxicity (growth inhibition) for 4T1 cells; format: cell-based, mouse
Experimental: To identify a mouse model for preclinical development of compounds, mouse cell lines were tested for (1) growth inhibition by the compounds and (2) the levels of constitutive Wnt signaling TCF-reporter activity using transfection of cell with TCF/LEF-responsive firefly luciferase construct. The data further confirmed that sensitivity to compounds correlated well with the levels of canonical Wnt signaling.
Based on the data, mouse breast cancer cell line 4T1 was selected for in vivo testing.
(§1) Further optimization and testing of inhibitors was performed using this cell line. Table 5 presents toxicity data for select inhibitors for 4T1 cells and human colon cancer cell line SW-480, wherein GI50 is the concentration providing 50% growth inhibition and TGI is the total growth inhibition.

U3A cells = format: cell-based; conditions: 48 h
Experimental: (§2) HeLa, U3A, RKO, HCT-116, and HT-29 cells were exposed to the CT-HC-1, CT-HC-3, CT-HC-5, and CT-HC-8 inhibitors of Example 1 for 48 hours in medium containing 1% bovine fetal serum, and the resulting cell number was evaluated using a MTT assay. Each of these cell lines is relevant to the evaluation of Wnt signaling. Cervical carcinoma HeLa cells overexpress β-catenin (see, e.g., Lee et al., Int. J. Cancer, 124(2): 287-297 (2009); and Lee et al., Gynecol. Oncol., 109(2): 270-274 (2008)). β-catenin is activated in colon carcinoma RKO due to mutation in CDX2 (see, e.g., Dang et al., Oncogene, 20(35): 4884-4890 (2001)). Colon adenocarcinoma HCT116 has elevated mutated β-catenin; however, it was found in the past to be resistant to down regulation of β-catenin (see, e.g., Chan et al., Proc. Natl. Acad. Sci. USA, 99(12): 8265-8270 (2002); and Handeli et al., Mol. Cancer Ther., 7(3): 521-529 (2008)). Colon carcinoma HT-29 has truncated adenomatous polyposis coli (APC) protein, which is a common cause of canonical Wnt pathway activation in colon malignancies. Fibrosarcoma U3A cells are STAT1-negative and have uncharacterized status of Wnt pathway.
(§3) The ability of CT-HC-1 to inhibit growth and to kill cancer cells at different concentrations was further investigated in HeLa, U3A, RKO, HCT-116, and HT-29 cells. The cells were stained with Promega Non-Radioactive Cell Proliferation Assay Kit (MTT) according to the manufacture's protocol. The absorbance of the wells was determined at 544 nm by a FLUOstar/POLARstar Galaxy (BMG Lab Technologies GmbH) Microplate Reader. The assays were performed on control (C) and test (T) cells. Untreated cells were used as a control. Cellular responses were calculated from the data using the following formula: 100×[(T−T0)/(C−T0)] for T>T0 and 100×[(T−T0)/T0] for T<T0. T0 corresponds to cell density at the time of drug addition.

HT-29 cells = format: cell-based; conditions: 48 h
Experimental: as §2, §3

HeLa cells = format: cell-based; conditions: 48 h
Experimental: as §2, §3

RKO cells = format: cell-based; conditions: 48 h
Experimental: as §2, §3

[1] = test system: RKO, HT-29, HCT-116, SW-480, and SW-620 cells; assay: Cell viability of colon cancer cells (FIGS. 2A-C); format: cell-based; conditions: increasing concentrations, HT-29, HCT-116, SW-480, SW-620
Experimental: The concentration (μM) of the peptide inhibitor is indicated on the x-axis and the percent viability is indicated on the y-axis.
A similar experiment was performed using RKO, HT-29, HCT-116, SW-480, and SW-620 cells. Colorectal adenocarcinoma SW-480 and SW-620 cells have truncated APC protein, which—as discussed above—is a common cause of canonical Wnt pathway activation in colon malignancies.

SW480 cells = assay: Toxicity (growth inhibition) for SW-480 cells; format: cell-based, human; set-up: unit not given here
Experimental: as §1

HCT-116 cells = format: cell-based, human; conditions: 48 h
Experimental: as §2, §3

[2] = test system: HeLa, U3A, RKO, HCT-116, and HT-29 cells; assay: MTT cell number versus concentration (FIG. 1); format: cell-based; conditions: HCT-116, HT-29
Experimental: as §3

[3] = test system: Lim-1, E-cadherin, Axin-2 expression; assay: Semi-quantitative RT-PCR of marker expression in MM cells; format: cell-based
Excerpt: (§4) To determine if the loss of β-catenin affects differentiation, MM cells were co-cultivated with inductor, embryonic spinal cord, and treated with CT-HC-1. In these cultures, tubule formation was unaffected. This finding was supported by semi-quantitative RT-PCR analysis of BIO-induced MM cells in which levels of epithelial markers Lim-1 and E-cadherin were unaltered with CT-HC-1 treatment. […] This observation is consistent with reports describing an antagonistic relationship between canonical and non-canonical Wnt mechanisms (see, e.g., Park et al., Development, 132: 2533-2539 (2007); and Schmidt-Ott et al., Development, 132: 3177-3190 (2007).

[4] = test system: Wnt pathway (TOPflash reporter transcription); assay: TOPflash dual luciferase reporter assay in primary metanephric mesenchyme (MM) cells; format: cell-based; conditions: 10 μM, 30 min pre-treatment, 24 hours
Experimental: Primary metanephric mesenchyme (MM) cells were transfected with the Amaxa Nucleofector 96-well Shuttle System (Lonza Group Ltd, Basel, Switzerland). Briefly, 1×10^6 cells per transfection were resuspended in 20 μl of 96-well Nucleofector solutions. TOPflash luciferase plasmid (1 μg) and 0.1 μg pRL-TK-renilla plasmids (Promega, Madison, Wis., USA) were mixed with cell suspensions and transferred to the well of a 96-well Nucleocuvette module. Nucleofections were performed according to manufacturer's instructions using program DN-100.
MM cells were pre-treated with or without CT-HC-1 (10 μM) for 30 min, and then exposed to GSK3 inhibitor BIO (500 nM) or Wnt3a conditioned medium (50%) (Wnt3aCM as described in Willert et al., Nature, 423: 448-452 (2003)) for 24 hours. Cells were lysed and assayed for reporter activity using a Dual luciferase assay system (Promega) and a Monolight 3010 Luminometer (Pharmagen, San Diego, Calif., USA).

β-catenin = assay: Levels of total β-catenin in MM cells; format: cell-based
Experimental: Cells were also evaluated for levels of total β-catenin. In these studies, β-catenin was degraded within 3 hours of treatment with CT-HC-1.

[5] = test system: MM cells (tubule formation); assay: MM cell differentiation, co-cultivation with embryonic spinal cord inductor; format: cell-based; conditions: MM cells co-cultivated with embryonic spinal cord
Excerpt: as §4

4T1 breast cancer = 4T1 breast cancer mouse model; format: in vivo; conditions: 2 mg/kg subcutaneously three times a week, alone, after three injections
Experimental: CT-HC-11 has been tested in 4T1 breast cancer mouse model at two doses: 10 and 2 mg/kg injected subcutaneously three times a week alone or in combination with weekly gemcitabine (75 mg/kg).

[6] = cells exposed only to peptide, no inductive ligand

Pal-TRFLSSTLQVSLRKK-NH2 [CT-HC-15]
4T1 cells TGI (total growth inhibition) (4T1 cells): 3.6 µM

CCCCCCCCCCCCC(C)(N)C(=O)N[C@@H](Cc1ccc(O)cc1)C(=O)N[C@@H](CCCCN)C(=O)N[C@@H](CCCCN)C(=O)N[C@@H](CCCNC(=N)N)C(=O)N[C@@H](CC(C)C)C(=O)N[C@@H](CO)C(=O)N[C@H](C(=O)N[C@@H](CCC(=O)O)C(=O)N[C@@H](CC(C)C)C(=O)N[C@H](C(=O)N[C@@H](CO)C(=O)N[C@@H](CO)C(=O)N[C@@H](CC(C)C)C(=O)N[C@@H](Cc1ccccc1)C(=O)N[C@@H](CCCNC(=N)N)C(=O)O)[C@@H](C)O)C(C)C (stereo partly shown) [CT-HC-8, Doa-YKKRLSVELTSSLFR] (H-[X1]YKKRLSVELTSSLFR-OH; N-terminus and C-terminus assumed)
GI50 (U3A cells): > 5 µM | GI50 (HT-29 cells): > 5 µM | GI50 (HeLa cells): 3.2 ± 0.4 µM | GI50 (RKO cells): > 5 µM | cell viability [1]: decreased viability | SW480 cells TGI (total growth inhibition) (SW480 cells): 0.4 | 4T1 cells TGI (total growth inhibition) (4T1 cells): > 5 µM | GI50 (HCT-116 cells): > 5 µM

CCCCCCCCCCCCCCCC(=O)NCCCC[C@H](N)C(=O)N[C@@H](Cc1ccc(O)cc1)C(=O)N[C@@H](CCCCN)C(=O)N[C@@H](CCCCN)C(=O)N[C@@H](CCCNC(=N)N)C(=O)N[C@@H](CC(C)C)C(=O)N[C@@H](CO)C(=O)N[C@H](C(=O)N[C@@H](CCC(=O)O)C(=O)N[C@@H](CC(C)C)C(=O)N[C@H](C(=O)N[C@@H](CO)C(=O)N[C@@H](CO)C(=O)N[C@@H](CC(C)C)C(=O)N[C@@H](Cc1ccccc1)C(=O)N[C@@H](CCCNC(=N)N)C(=O)O)[C@@H](C)O)C(C)C [CT-HC-1, Pal-ε-KYKKRLSVELTSSLFR] (H-K(Palmitoyl)YKKRLSVELTSSLFR-OH; N-terminus and C-terminus assumed)
GI50 (U3A cells): 0.6 ± 0.04 µM | GI50 (HT-29 cells): 1.4 ± 0.05 µM | GI50 (HeLa cells): 0.63 ± 0.025 µM | GI50 (RKO cells): 1.3 ± 0.05 µM | cell viability [1]: decreased viability | cell number as compared to untreated cells [2]: decreased cell numbers in a concentration dependent manner | levels of epithelial markers Lim-1 and E-cadherin ([3]; BIO-induced MM cells): unaltered | Axin-2 expression [3, 6]: decrease | expression of Lim-1 and E-cadherin [3, 6]: enhanced expression | BIO-induced transcription (TOPflash reporter) ([4]; BIO 500 nM): completely blocked | Wnt3aCM-induced transcription (TOPflash reporter) ([4]; Wnt3a conditioned medium 50%): completely blocked | time of treatment within which β-catenin was degraded (β-catenin): ≤ 3 h | β-catenin levels 24 hours after treatment (β-catenin; 24 hours): had not recovered | β-catenin levels in presence of proteasomal inhibitor MG132 (β-catenin; with MG132): stabilized | SW480 cells TGI (total growth inhibition) (SW480 cells): 5 | 4T1 cells TGI (total growth inhibition) (4T1 cells): > 5 µM | tubule formation [5]: unaffected | GI50 (HCT-116 cells): 3.4 ± 0.25 µM

Pal-Aib-YKKRLSVQLTSSLFR (Palmitoyl-[Aib]YKKRLSVQLTSSLFR) [CT-HC-19]
4T1 cells TGI (total growth inhibition) (4T1 cells): > 5 µM

Pal-Aib-YKKRLSVELTSSLFR (Palmitoyl-[Aib]YKKRLSVELTSSLFR) [CT-HC-13]
4T1 cells TGI (total growth inhibition) (4T1 cells): > 5 µM

Pal-RFLSSTLQVSLRKK-NH2 [CT-HC-20]
4T1 cells TGI (total growth inhibition) (4T1 cells): > 5 µM

Pal-YKKRLSVELTSSLFRTEPMAW (Palmitoyl-YKKRLSVELTSSLFRTEPMAW) [CT-HC-16]
SW480 cells TGI (total growth inhibition) (SW480 cells): >5 | 4T1 cells TGI (total growth inhibition) (4T1 cells): > 5 µM

Pal-YKKRLSVELTSSLFR (Palmitoyl-YKKRLSVELTSSLFR) [CT-HC-12]
SW480 cells TGI (total growth inhibition) (SW480 cells): >5 | 4T1 cells TGI (total growth inhibition) (4T1 cells): > 5 µM

Cap-TRFLSSTLQVSLRKK-NH2 [CT-HC-22]
4T1 cells TGI (total growth inhibition) (4T1 cells): > 5 µM

CCCCCCCCCCCCCCCC(=O)NCCCC[C@H](N)C(=O)N[C@@H](Cc1ccc(O)cc1)C(=O)N[C@@H](CCCCN)C(=O)N[C@@H](CCCCN)C(=O)N[C@@H](CCCNC(=N)N)C(=O)N[C@@H](CC(C)C)C(=O)N[C@@H](CO)C(=O)N[C@H](C(=O)N[C@@H](CCC(N)=O)C(=O)N[C@@H](CC(C)C)C(=O)N[C@H](C(=O)N[C@@H](CO)C(=O)N[C@@H](CO)C(=O)N[C@@H](CC(C)C)C(=O)N[C@@H](Cc1ccccc1)C(=O)N[C@@H](CCCNC(=N)N)C(=O)O)[C@@H](C)O)C(C)C [CT-HC-3, Pal-ε-KYKKRLSVQLTSSLFR] (H-K(Palmitoyl)YKKRLSVQLTSSLFR-OH; N-terminus and C-terminus assumed)
GI50 (U3A cells): 0.65 ± 0.045 µM | GI50 (HT-29 cells): 2.8 ± 0.1 µM | GI50 (HeLa cells): 0.8 ± 0.08 µM | GI50 (RKO cells): 1.8 ± 0.15 µM | cell viability [1]: decreased viability | SW480 cells TGI (total growth inhibition) (SW480 cells): 0.5 | 4T1 cells TGI (total growth inhibition) (4T1 cells): > 5 µM | GI50 (HCT-116 cells): 4 ± 0.3 µM

Pal-TRFLSSTLEVSLRKKY-NH2 [CT-HC-10]
SW480 cells TGI (total growth inhibition) (SW480 cells): 2.2 | 4T1 cells TGI (total growth inhibition) (4T1 cells): 2 µM

Pal-NKPQDYKKRLSVELTSSLFR [CT-HC-2]
SW480 cells TGI (total growth inhibition) (SW480 cells): >5 | 4T1 cells TGI (total growth inhibition) (4T1 cells): > 5 µM

Ac-YKKRLS+ELT+SLFR (Ac-YKKRLSXELTXSLFR; staple 7-11; not fully specified (residues 7, 11); printed as Ac-YKKRLS+ELT+SLFR) [CT-HC-9]
SW480 cells TGI (total growth inhibition) (SW480 cells): >5 | 4T1 cells TGI (total growth inhibition) (4T1 cells): > 5 µM

Pal-Aib-TRFLSSTLQVSLRKK-NH2 [CT-HC-11]
tumor volume (4T1 breast cancer): significant reduction in tumor volume | 4T1 cells TGI (total growth inhibition) (4T1 cells): 3 µM

Lau-TRFLSSTLQVSLRKK-NH2 [CT-HC-23]
4T1 cells TGI (total growth inhibition) (4T1 cells): 3.5 µM
